Measurements taken from patent EP0968998A1, “Cosmetic compositions, ceramide analogues with anti-elastase activity and process for their preparation” (ELF ATOCHEM S.A., priority 1998, dated 2000).

System: stratum corneum
Experiment: Skin hydration: capacitance measurement (Corneometer Courage+Khazaka CM 200), hydration index, cream applied to forearm
Assay type: in vivo, volontaires sains ayant une peau sèche
Settings: cream with 0,5 % (ex. 7, témoins), 1 % (ex. 4, 8), 5 % (ex. 6)
Description: Les exemples qui suivent permettent d'illustrer l'invention. […] Les valeurs sont exprimées en nombre d'onde par centimètre. - Résonance magnétique nucléaire (RMN) Les spectres sont réalisés au moyen d'un appareil BRUCKER DRX 500, à 500 MHz (^1H) et 125 MHz (^13C) dans le DMSO-d6. La calibration de l'appareil est effectuée au moyen de DMSO. Les déplacements chimiques sont exprimés en ppm. […] On utilise le N-succinyl-(Ala)3-p-nitroanilide en solution dans le tétrahydrofurane et une solution d'élastase à 100 mg/ml dans un mélange de glycérol et de tampon acétate de sodium (50/50; v/v), pH5. L'activité de l'enzyme est mesurée à 37°C dans 100 mM de tampon Tris-HCI, pH8 contenant 0,01 % de Triton X-100 (volume/volume) et 0,02 % d'azide de sodium (poids/volume). Le céramide à tester, solubilisé dans le tétrahydrofurane (concentration en THF = 0,5 % en volume) est préincubé en présence de l'enzyme (0,05 mg/ml) dans le tampon pendant 5 minutes à 37°C. On ajoute le N-succinyl-(Ala)3-p-nitroanilide (concentration finale : 250 µM) et on mesure la libération de la p-nitroaniline dans une cuve en quartz par spectrophotométrie à 410 nm. La capacité inhibitrice du céramide est exprimée en pourcentage d'inhibition (% I) selon la relation : %I = (1 -(Vi)/(Vo))×100 [formula] dans laquelle Vi et Vo sont les vitesses d'apparition de la p-nitroaniline en présence et en absence d'inhibiteur respectivement. - Mesure de l'amélioration de la barrière cutanée a) mesure de la Perte Insensible en Eau (PIE) La mesure de la PIE permet de quantifier la très faible quantité d'eau qui diffuse passivement à travers le stratum corneum. Ce paramètre représente un très bon index de la fonction barrière du stratum corneum. Cette méthode est surtout utilisée pour contrôler l'efficacité de formules cosmétiques qui, contenant certains types de lipides sont capables de diminuer la PIE et, en conséquence, d'empêcher la déshydratation du stratum corneum. La sonde est laissée en contact de la peau pendant 2 minutes environ de façon à atteindre une position d'équilibre. PIE = D'(dP)/(dx)(gradient de pression de vapeur) [formula] Les valeurs sont exprimées en g/m^2/heure et permettent de calculer un delta de PIE = PIE (peau traitée) - PIE (peau témoin). L'appareil utilisé est un Evaporimètre EPI de Servomed. Les mesures sont effectuées sur deux groupes de 15 volontaires sains ayant une peau sèche, avant l'application du produit (t=0) et après l'application (t=0,5 heure, 1 heure, 3 heures et 6 heures) sur la face interne des deux avant-bras. L'analogue de céramide selon l'invention ou le céramide témoin est incorporé dans une crème ayant la composition suivante (en % en poids) :
La teneur en analogue de céramide dans la crème est égale à 0,5 % (exemple 7), 1 % (exemples 4 et 8) et 5 % (exemple 6), et celle des céramides témoins (a) et (b) est égale à 0,5 %. La diminution des valeurs de PIE signifie une amélioration de la qualité de la barrière cutanée qui traduit un meilleur pouvoir retentionnel de l'eau au niveau de la couche cornée et donc une meilleure hydratation. b) hydratation cutanée L'eau peut être considérée comme un dipôle électrique capable de conduire l'électricité. Le transport d'électricité dans un champ donné est proportionnel à la quantité d'eau présente dans le stratum corneum. Plus une peau est riche en eau et plus le courant électrique passe rapidement entre 2 électrodes. Il existe donc un lien entre l'hydratation du stratum corneum et les modifications des propriétés électriques. Les mesures de capacitance, liée à la constante diélectrique de la peau, sont réalisées par le Cornéomètre Courage+Khazaka CM 200, dont la sonde présente une surface de contact avec la peau de 49 mm^2; cette sonde est appliquée avec une pression constante sur la surface cutanée à mesurer, et l'indice d'hydratation directement proportionnel au taux hydrique de surface est instantané.

CCCCCCCCCCCCCCCCCC(=O)NC(CC)(CO)COC(=O)CCCCCCCCCCCCCCCCC (centres unmarked) [Exemple 4, 1-stéaroyl-2-éthyl-2-stéaroylamino-1,3-propanediol]
Indice d'Hydratation (IH) M±s (t=0,5 heure after application): 66,87±7,50
Indice d'Hydratation (IH) M±s (t=0 heure (before application, baseline)): 64,69±9,04
Indice d'Hydratation (IH) M±s (t=1 heure after application): 65,56±6,96
Indice d'Hydratation (IH) M±s (t=3 heures after application): 62,31±7,17
Indice d'Hydratation (IH) M±s (t=6 heures after application): 62,91±7,78
